Target: T1, human orexin-2 (hOX2) receptors (Homo sapiens, UniProt O43614)
T1 construct: expressed in transfected cells
T1 sequence (O43614 1-444): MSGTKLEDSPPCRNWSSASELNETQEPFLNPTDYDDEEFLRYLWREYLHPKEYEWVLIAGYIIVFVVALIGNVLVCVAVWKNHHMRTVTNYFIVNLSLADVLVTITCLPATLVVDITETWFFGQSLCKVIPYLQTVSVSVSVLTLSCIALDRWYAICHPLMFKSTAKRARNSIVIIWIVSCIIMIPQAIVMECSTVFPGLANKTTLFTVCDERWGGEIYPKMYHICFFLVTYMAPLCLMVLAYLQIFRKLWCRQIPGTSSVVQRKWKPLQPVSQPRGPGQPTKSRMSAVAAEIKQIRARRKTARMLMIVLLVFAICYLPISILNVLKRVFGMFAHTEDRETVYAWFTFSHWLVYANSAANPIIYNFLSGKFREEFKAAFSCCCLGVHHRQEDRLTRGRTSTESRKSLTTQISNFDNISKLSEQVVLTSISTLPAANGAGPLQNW
Assay: Intracellular Ca2+ mobilization assay (FLIPR), antagonism of orexin-A
Assay type: cell-based
Settings: CHO(dHFr-) cells stably expressing hOX2; orexin-A at EC80 as agonist; antagonist applied 25 min before; Kb=IC50/(1+[A]/EC50); read-out: Kb (μM) OX2R (human)
Procedure: Intracellular Ca^2+ Mobilization Assay
The Chinese Hamster Ovary (dHFr—) mutant cell line stably expressing human orexin-1 (hOX1) or human orexin-2 (hOX2) receptors were maintained in Dulbecco's Modified Eagle Medium (1X) with GlutaMax™ 1, 4500 mg/L D-Glucose and Sodium Pyruvate (Catalog No. 31966-021, Invitrogen, Carlsbad, Calif.), 5% dialyzed fetal calf serum (Catalog No. 26400-044), 100 μg/ml penicillin and 100 μg/ml streptomycin. The cells were seeded at 5×10^4 cells/well in the poly-D-lysine treated, 96-well, black/clear-bottomed plates (Catalog No. BD356640, BD Biosciences, Palo Alto, Calif.). 24 h later, the cells were loaded for 1 h at 37° C. with 4 μM Flou-4 acetoxymethyl ester (Catalog No. F-14202, Molecular Probes, Eugene, Oreg.) in FLIPR buffer (1×HBSS, 20 mM HEPES, 2.5 mM Probenecid). Hanks' Balanced Salt Solution (HBSS) (10×) (catalog No. 14065-049) and HEPES (1M) (catalog No. 15630-056) were purchased from Invitrogen, Carlsbad, Calif. Probenecid (250 mM) (catalog No. P8761) was from Sigma, Buchs, Switzerland. The cells were washed five times with FLIPR buffer to remove excess dye and intracellular calcium mobilization, [Ca^2+]i were measured using a Fluorometric Imaging Plate Reader (FLIPR-96, Molecular Devices, Menlo Park, Calif.) as described previously (Malherbe et al., Mol. Pharmacol., 64, 823-832, 2003). Orexin A (catalog No. 1455, Toris Cookson Ltd, Bristol, UK) was used as agonist. Orexin A (50 mM stock solution in DMSO) was diluted in FLIPR buffer +0.1% BSA. The EC50 and EC80 values of orexin-A were measured daily from standard agonist concentration-response curves in CHO(dHFr—)—OX1R and —OX2R cell lines. All compounds were dissolved in 100% DMSO. Inhibition curves were determined by addition of 11 concentrations (0.0001-10 μM) of inhibitory compounds and using EC80 value of orexin-A as agonist (a concentration which gave 80% of max agonist response, determined daily). The antagonists were applied 25 min (incubation at 37° C.) before the application of the agonist. Responses were measured as peak increase in fluorescence minus basal, normalized to the maximal stimulatory effect induced by EC80 value of orexin-A or orexin- B. Inhibition curves were fitted according to the Hill equation: y=100/(1+(x/IC50)^nH), where nH=slope factor using Excel-fit 4 software (Microsoft). Kb values were calculated according to the following equation Kb=IC50/(1+[A]/EC50) where A is the concentration of agonist added which is very close to agonist EC80 value, and IC50 and EC50 values were derived from the antagonist inhibition and orexin-A or B agonist curves, respectively.

Kb	SMILES
0.0216 µM	O=C(C(O)c1ccc(F)cc1)N(CCc1ccc(C(F)(F)F)cn1)c1ccc(OC(F)F)c(OC(F)F)c1 (racemic) [Example 96, (R,S)—N-(3,4-Bis-difluoromethoxy-phenyl)-2-(4-fluoro-phenyl)-2-hydroxy-N-[2-(5-trifluoromethyl-pyridin-2-yl)-ethyl]-acetamide]
0.0106 µM	COc1cc(N(CCc2ccc(C(F)(F)F)cn2)C(=O)C(O)c2ccc(F)cc2)ccc1F (racemic) [Example 88, (R,S)—N-(4-Fluoro-3-methoxy-phenyl)-2-(4-fluoro-phenyl)-2-hydroxy-N-[2-(5-trifluoromethyl-pyridin-2-yl)-ethyl]-acetamide]
0.0176 µM	COc1cccc(N(CCc2ccc(C(F)(F)F)nc2)C(=O)[C@@H](O)c2ccccc2)c1 [Example 56, (S)-2-Hydroxy-N-(3-methoxy-phenyl)-2-phenyl-N-[2-(6-trifluoromethyl-pyridin-3-yl)-ethyl]-acetamide]
0.0475 µM	CC(=O)O[C@H](C(=O)N(CCc1ccc(C(F)(F)F)cn1)c1ccc(C)c(C)c1)c1ccccc1 [Example 65, Acetic acid (S)-{(3,4-dimethyl-phenyl)-[2-(5-trifluoromethyl-pyridin-2-yl)-ethyl]-carbamoyl}-phenyl-methyl ester]
0.0313 µM	O=C([C@H](O)c1ccc(F)cc1)N(CCc1ccc(C(F)(F)F)cn1)c1ccc2c(c1)CCC2 (racemic) [Example 73, (R,S)-2-(4-Fluoro-phenyl)-2-hydroxy-N-indan-5-yl-N-[2-(5-trifluoromethyl-pyridin-2-yl)-ethyl]-acetamide]
0.0243 µM	O=C([C@@H](O)c1ccccc1)N(CCc1ccc(C(F)(F)F)nc1)c1ccc2c(c1)[C@@H](O)CCO2 [Example 63, (S)-2-Hydroxy-N-((S)-4-hydroxy-chroman-6-yl)-2-phenyl-N-[2-(6-trifluoromethyl-pyridin-3-yl)-ethyl]-acetamide]
0.0159 µM	Cc1ccc(N(CCc2ccc(C(F)(F)F)nc2)C(=O)[C@H](O)c2ccccc2)cc1C [Example 3, (R)—N-(3,4-Dimethyl-phenyl)-2-hydroxy-2-phenyl-N-[2-(6-trifluoromethyl-pyridin-3-yl)-ethyl]-acetamide]
0.0232 µM	Cc1ccc(N(CCc2ccc(F)cn2)C(=O)[C@@H](O)c2ccccc2)cc1C [Example 68, (S)—N-(3,4-Dimethyl-phenyl)-N-[2-(5-fluoro-pyridin-2-yl)-ethyl]-2-hydroxy-2-phenyl-acetamide]
0.0014 µM	Cc1ccc(N(CCc2ccc(C(F)(F)F)nc2)C(=O)[C@@H](N)c2ccc(F)cc2)cc1C [Example 10, (S)-2-Amino-N-(3,4-dimethyl-phenyl)-2-(4-fluoro-phenyl)-N-[2-(6-trifluoromethyl-pyridin-3-yl)-ethyl]-acetamide]
0.0362 µM	Cc1ccc(N(CCc2ccc(C(F)(F)F)nc2)C(=O)Cc2ccccc2)cc1C [Example 17, N-(3,4-Dimethyl-phenyl)-2-phenyl-N-[2-(6-trifluoromethyl-pyridin-3-yl)-ethyl]-acetamide]
0.0015 µM	O=C([C@@H](O)c1ccccc1)N(CCc1ccc(C(F)(F)F)nc1)c1ccc2c(c1)CCCC2 [Example 12, (S)-2-Hydroxy-2-phenyl-N-(5,6,7,8-tetrahydro-naphthalen-2-yl)-N-[2-(6-trifluoromethyl-pyridin-3-yl)-ethyl]-acetamide]
0.0005 µM	Cc1ccc(N(CCc2ccc(C(F)(F)F)nc2)C(=O)[C@@H](O)c2ccc(F)cc2)cc1C [Example 7, (S)—N-(3,4-Dimethyl-phenyl)-2-(4-fluoro-phenyl)-2-hydroxy-N-[2-(6-trifluoromethyl-pyridin-3-yl)-ethyl]-acetamide]
0.0198 µM	O=C([C@@H](O)c1ccc(F)cc1)N(CCc1ccc(C(F)(F)F)cn1)c1ccc2c(c1)CCO2 [Example 87, (S)—N-(2,3-Dihydro-benzofuran-5-yl)-2-(4-fluoro-phenyl)-2-hydroxy-N-[2-(5-trifluoromethyl-pyridin-2-yl)-ethyl]-acetamide]
0.0038 µM	Cc1ccc(N(CCc2ccc(C(F)(F)F)cn2)C(=O)[C@@H](O)c2ccccc2)cc1C [Example 26, (S)—N-(3,4-Dimethyl-phenyl)-2-hydroxy-2-phenyl-N-[2-(5-trifluoromethyl-pyridin-2-yl)-ethyl]-acetamide]
